A short description of this data set: gradient 5% acetonitrile 3 min, to 50% in 2 min, to 85% in 15 min, held 3 min, 100 µL/min. The note with it: column: Zorbax Extend-C18 2.1 x 50 mm; eluents: water / acetonitrile, 0.1% formic acid. The method, boiled down: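 Retention times of pure standards were taken from adduct peaks that were selected by computer and manually inspected. Over 3 months, mixtures of ~100 molecules were run by HPLC–quadrupole time-of-flight mass spectrometry in positive and negative ionization mode. The Zorbax Extend-C18 column (2.1 × 50 mm, 1.8 μm) ran at 100 μL/min in water and acetonitrile, each containing 0.1% formic acid, with 40 μL dead volume and 900 μL dwell volume.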
Molecule `Cc1ccccc1C(=O)NCc1ccc2c(c1)ncn2C(C)C` registered an RP-LC retention time of 598 s.

On to `CCCn1c(C(=O)NCCc2ccc(S(N)(=O)=O)cc2)cc2c(=O)n(C)c(=O)n(C)c21`, for which the RP-LC retention time was found to be 631 s.

`O=C(Nc1ccc(CCc2nc3ccccc3n2-c2ccccc2)cc1)c1cnccn1` registered an RP-LC retention time of 694 s.

`O=C(CCc1nnc2ccc(NCc3ccccc3)nn12)N1CCN(c2ccccn2)CC1` came in with an RP-LC retention time of 588 s.

`O=C(c1ccc2c(c1)OCO2)N1CC(F)(F)C[C@H]1COc1ccncc1` showed an RP-LC retention time of 615 s.

Molecule `CCc1ccc(NC(=O)N2C[C@@H]3CN(S(=O)(=O)c4ccccc4)C[C@H](C2)O3)cc1` came in with an RP-LC retention time of 851 s.

In turn, `CCc1ccccc1NC(=O)N1CCCC1c1nc(-c2cccc(OC)c2)no1` (centres undefined) yielded an RP-LC retention time of 957 s.

On to `Cc1cc(C(F)(F)F)nn1CC(=O)N1CCC(n2c(C)cnc2C2CCC2)C1` (centres undefined), for which the RP-LC retention time was determined as 656 s.

On to `CCN1CCC(N(Cc2ccc3c(c2)OCO3)C(=O)Nc2ccccc2)CC1`, for which the RP-LC retention time stood at 650 s.

Turning to `CC1CCC(NC(=O)CCn2nc(C(=O)N3c4ccccc4CC3C)ccc2=O)CC1` (centres undefined), the RP-LC retention time is 851 s.

For `CC1CN=C2C=C(N3CCN(C(=O)NCc4cccc(F)c4)CC3)N=CN21` (centres undefined), the RP-LC retention time came out at 605 s.

Molecule `Cc1csc(-c2cc(S(=O)(=O)NCCN3CCCCC3C)cn2CC(=O)N2CCCCC2)n1` (centres undefined) came in with an RP-LC retention time of 673 s.

Take `CC1CC(=O)c2cnc(N3CCN(Cc4ccccc4)CC3)nc2C1` (centres undefined): the RP-LC retention time is 643 s.

In turn, `COc1cc(NC(C)=O)c2ncccc2c1Br` gave an RP-LC retention time of 960 s.

`O=C(NCCN1CCCC1)c1ccc2nc(-c3ccccc3)cn2c1`: the RP-LC retention time was 552 s.

For `COc1cccc(C2Cn3nnc(-c4nc(-c5ccc(OCc6ccccc6)cc5)no4)c3CO2)c1` (centres undefined), the RP-LC retention time was found to be 1340 s.

`CCc1nn(CC(=O)N2CCC(C(N)=O)CC2)c(=O)c2cc3occc3n12`: the RP-LC retention time is 612 s.

The molecule `CCCn1cc(CCNC(=O)Nc2cc(C)cc(C)c2)c2cccnc21` came in with an RP-LC retention time of 736 s.

On to `COCCn1c(=O)c2cc(C(=O)Nc3ccccc3)nn2c2ccccc21`, for which the RP-LC retention time amounted to 714 s.

`COc1ccc(-c2nnc(-c3cccc(S(=O)(=O)N4CCCCC4)c3)o2)cc1OC` registered an RP-LC retention time of 991 s.

On to `O=C(NCC(c1ccco1)N1CCOCC1)c1cc(-c2ccc3c(c2)CCCC3)on1` (centres undefined), for which the RP-LC retention time was determined as 827 s.

Molecule `O=C(CN1C(=O)CSc2ccc(C(=O)N3CCCC3)cc21)N1CCN(c2ncccn2)CC1` returned an RP-LC retention time of 661 s.

On to `O=C(Nc1cccc(Cl)c1)Nc1nccn(-c2ccc3c(c2)CCC3)c1=O`, for which the RP-LC retention time was 1170 s.

The molecule `O=c1c2sccc2n(Cc2nc(-c3ccc(Cl)c(F)c3)no2)c(=O)n1CCc1ccccc1` yielded an RP-LC retention time of 1280 s.

Turning to `CCSc1nnc(-c2nn(C)c3c2CN(C(=O)c2cccc(Cl)c2)CC3)n1C`, the RP-LC retention time was 788 s.

The molecule `Cc1cc(C)cc(NC(=O)C2CCCN2S(=O)(=O)c2cc3c(cc2C)NC(=O)C(C)O3)c1` (centres undefined) showed an RP-LC retention time of 852 s.

For `O=c1c(=O)n(-c2ccccc2)ccn1Cc1nc(-c2ccc3c(c2)OCO3)no1`, the RP-LC retention time stood at 773 s.

Molecule `Cc1nnc(-c2cc(NC(=O)Cc3c[nH]c4ccccc34)c(C)s2)o1` displayed an RP-LC retention time of 794 s.

For `Cc1ccc2c(c1)C(=O)NC1(CCN(C(=O)c3ccc(F)c(Cl)c3)CC1)N2C`, the RP-LC retention time is 919 s.

The molecule `Cc1cccc(NC(=O)C2CC(=O)N(c3n[nH]c4cccc(F)c34)C2)c1` (centres undefined) came in with an RP-LC retention time of 759 s.

`COC(=O)c1cc2c(=O)n(-c3nccs3)ccc2nc1C` had an RP-LC retention time of 896 s.

The molecule `O=C(Cc1cccs1)NC1CC(=O)N(Cc2ccccc2)C1` (centres undefined) had an RP-LC retention time of 712 s.

Molecule `COc1ccc(N2C=C(C#N)S(=O)(=O)c3ccc(F)cc32)cc1OC` had an RP-LC retention time of 893 s.

`Cc1ccc(-c2nnc(CC(=O)NCC(C)C)o2)cc1` had an RP-LC retention time of 775 s.

In turn, `O=C(NCc1nnnn1C1CCCCC1)c1ccccc1C(F)(F)F` had an RP-LC retention time of 782 s.

On to `Fc1ccc(OCc2nc(-c3cccc(-c4ccn[nH]4)c3)no2)cc1`, for which the RP-LC retention time was 939 s.

With `Cc1nc(-c2cccnc2)nc2c1CCC(=O)N2Cc1ccncc1`, the RP-LC retention time is 554 s.

With `CC(C)NC(=O)N1CCC(N2C(=O)C3(CCCC3)C2c2ccccc2)CC1` (centres undefined), the RP-LC retention time stood at 837 s.

In the case of `COCCn1c(CC2CCN(S(=O)(=O)c3ccc(OC)cc3)C2)nc2cccnc21` (centres undefined), the RP-LC retention time worked out at 668 s.

Take `Cc1ccc(Cl)c(NS(=O)(=O)c2cc(-c3[nH]ncc3C(=O)N3CCCC3)oc2C)c1`: the RP-LC retention time worked out at 739 s.

Consider `O=C(Nc1ccc(F)cc1F)c1ccc(Br)cc1F`, for which the RP-LC retention time turned out to be 969 s.

Take `CCCn1cc(CCNC(=O)c2cc(F)ccc2Cl)c2cccnc21`: the RP-LC retention time worked out at 795 s.

`CCCN1C(=O)CN(S(=O)(=O)c2ccc(C)cc2)CC1(C)C(=O)NCc1ccccc1` (centres undefined) registered an RP-LC retention time of 864 s.

The molecule `CC(C)CN1C(=O)c2ccccc2C(C(=O)NCc2cccnc2)C12CCCCC2` (centres undefined) registered an RP-LC retention time of 659 s.

With `CCNC(=O)Nc1ccc(OCC(=O)N2CCN(c3ncccn3)CC2)nc1`, the RP-LC retention time was 604 s.

For the molecule `Cc1nc2cc(N3CC(C(=O)Nc4cccc(C)c4C)CC3=O)ccc2o1` (centres undefined), the RP-LC retention time turned out to be 785 s.

Turning to `Cc1cc(C2CCCN2C(=O)Nc2ccccc2C(F)(F)F)no1` (centres undefined), the RP-LC retention time is 895 s.

`COc1cc(C(C)=O)ccc1OCC(O)CN1CCN(c2cccc(C)c2C)CC1` (centres undefined): the RP-LC retention time worked out at 597 s.

The molecule `CCc1c(C2CCN(C(=O)c3ccc(OC)nc3)CC2)noc1N` returned an RP-LC retention time of 663 s.

In turn, `CCOc1cccc(-c2noc(-c3nn(-c4ccc(C)c(C)c4)ccc3=O)n2)c1` returned an RP-LC retention time of 1060 s.

Consider `CCOC(=O)c1c(C)[nH]c(C(=O)N2CCC(CC(=O)N3CCN(c4ccccn4)CC3)CC2)c1C`, for which the RP-LC retention time stood at 619 s.

`CC(=O)c1ccc(NC(=O)CN2C(=O)C3CCCCN3c3ccc(C(=O)N4CCCC4)cc32)cc1` (centres undefined): the RP-LC retention time turned out to be 996 s.

Regarding `Cc1ccc2nc(N3CCN(C(=O)C(C)(C)C)CC3)c(-c3noc(-c4ccccc4)n3)cc2c1`, the RP-LC retention time is 1370 s.

Turning to `O=C(c1cccc(F)c1)N1CCCC1c1nc(-c2ccccc2)no1` (centres undefined), the RP-LC retention time is 946 s.

For the molecule `CCN(CCCNC(=O)c1sc2ncccc2c1-n1cccc1)c1ccccc1`, the RP-LC retention time was 709 s.

`Cc1ccc(CNC(=O)C2(C)CCCN(C(=O)NCc3ccc(F)cc3)C2)cc1` (centres undefined) registered an RP-LC retention time of 864 s.

`Cc1nc2cc(N3CC(C(=O)NCc4ccccc4F)CC3=O)ccc2o1` (centres undefined) returned an RP-LC retention time of 699 s.

The molecule `Cn1nc(-c2nc(-c3cccc(Cl)c3)no2)ccc1=O` displayed an RP-LC retention time of 942 s.

On to `Cc1ccccc1NS(=O)(=O)c1cc(-c2[nH]ncc2C(=O)N(C)C)oc1C`, for which the RP-LC retention time was 673 s.

`Cc1noc(CNC(=O)CSCc2ccccc2)n1` displayed an RP-LC retention time of 684 s.

Regarding `Cc1ccc(-c2nc(N)n(C(=O)c3ccc(C(C)(C)C)cc3)n2)cc1C`, the RP-LC retention time worked out at 1350 s.

In turn, `COc1ccc(-c2ccnc3nc(-c4cccs4)nn23)cc1OC` had an RP-LC retention time of 832 s.

Turning to `O=C(c1ccoc1)N1CC(Oc2cccc(-c3nc(-c4ccccc4)no3)c2)C1`, the RP-LC retention time was 1070 s.

With `CCc1nnc(-c2cc(NC(=O)Cc3c[nH]c4ccccc34)c(C)s2)o1`, the RP-LC retention time is 720 s.

For the molecule `Cc1cc(N(C)C)nc(NCCNC(=O)C(C)(C)Oc2ccc(Cl)cc2)n1`, the RP-LC retention time came out at 598 s.

For `O=C(Nc1ccc(N2CCN(C3CCCCC3)C2=O)nc1)c1ccc2c(c1)OCO2`, the RP-LC retention time came out at 808 s.

Turning to `Cc1cccc(NC(=O)N2CCC(N3CCN(Cc4ccccc4)C3=O)CC2)c1`, the RP-LC retention time was found to be 853 s.

`Cc1cc(C)c2nc(-c3ccccc3Br)cc(C(=O)O)c2c1` had an RP-LC retention time of 1130 s.

In the case of `CCN1CCN(S(=O)(=O)c2ccc(Cl)c(-c3nnc(-c4ccccc4)o3)c2)CC1`, the RP-LC retention time is 702 s.

Take `COc1ccc(OC)c(S(=O)(=O)N2CCCC(C(=O)NCCC(C)C)C2)c1` (centres undefined): the RP-LC retention time was 863 s.

Regarding `CSc1cccc(NC(=O)c2cccn2Cc2noc(C)n2)c1`, the RP-LC retention time stood at 899 s.

Turning to `COc1ccc(S(=O)(=O)N2CCCC(C(=O)NC3CCCC3)C2)cc1OC` (centres undefined), the RP-LC retention time was determined as 802 s.

On to `COc1ccc(-c2noc(Cn3nc(-c4ccc(Cl)cc4)ccc3=O)n2)cc1`, for which the RP-LC retention time is 1080 s.

Take `CC(C)NC(=O)c1nsc(C(=O)NC2CC2)c1N`: the RP-LC retention time is 713 s.

Consider `CN(CCNC(=O)CCCn1c2ccccc2c2cnn(C)c(=O)c21)Cc1ccccc1`, for which the RP-LC retention time came to 652 s.

`CC1(C(=O)NCc2ccccc2)CCCN(C(=O)Nc2ccc(Br)cc2F)C1` (centres undefined) showed an RP-LC retention time of 1030 s.

Consider `Cc1cccc(S(=O)(=O)N2CC3CN(C(=O)C4CCCO4)CC(C2)O3)c1` (centres undefined), for which the RP-LC retention time is 688 s.

Regarding `CCN1c2ccccc2C(=O)NC12CCN(C(=O)c1ccc3c(c1)OCO3)CC2`, the RP-LC retention time was 740 s.

`COc1ccc(-c2oc3ccc(OC)cc3c2C(=O)O)cc1` gave an RP-LC retention time of 879 s.
